Test results as given in patent US20240208992A1, “MACROCYCLES AS CFTR MODULATORS” (Idorsia Pharmaceuticals Ltd, priority 2021, published 2024).
pEC50: −log10 of the molar value.

Target: human F508del-CFTR (Homo sapiens, UniProt P13569, DEL508-508)
Assay: F508del-CFTR cell surface expression (corrector activity), DiscoveRx ß-galactosidase complementation chemiluminescence assay in recombinant U2OS cell line;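 note: U2OS cells co-expressing ProLink-tagged F508del-CFTR and a membrane-anchored enzyme acceptor, where more surface CFTR restores β-galactosidase activity measured by chemiluminescence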
Conditions: for pEC50: EC50, F508del-CFTR cell surface expression, U2OS cells, 16h compound incubation, geomean values; for Emax: U2OS, in relation to Emax of corrector lumacaftor (=100%), arithmetic mean values

human F508del-CFTR, sequence (P13569 with tags, fused parts or gaps DEL508-508): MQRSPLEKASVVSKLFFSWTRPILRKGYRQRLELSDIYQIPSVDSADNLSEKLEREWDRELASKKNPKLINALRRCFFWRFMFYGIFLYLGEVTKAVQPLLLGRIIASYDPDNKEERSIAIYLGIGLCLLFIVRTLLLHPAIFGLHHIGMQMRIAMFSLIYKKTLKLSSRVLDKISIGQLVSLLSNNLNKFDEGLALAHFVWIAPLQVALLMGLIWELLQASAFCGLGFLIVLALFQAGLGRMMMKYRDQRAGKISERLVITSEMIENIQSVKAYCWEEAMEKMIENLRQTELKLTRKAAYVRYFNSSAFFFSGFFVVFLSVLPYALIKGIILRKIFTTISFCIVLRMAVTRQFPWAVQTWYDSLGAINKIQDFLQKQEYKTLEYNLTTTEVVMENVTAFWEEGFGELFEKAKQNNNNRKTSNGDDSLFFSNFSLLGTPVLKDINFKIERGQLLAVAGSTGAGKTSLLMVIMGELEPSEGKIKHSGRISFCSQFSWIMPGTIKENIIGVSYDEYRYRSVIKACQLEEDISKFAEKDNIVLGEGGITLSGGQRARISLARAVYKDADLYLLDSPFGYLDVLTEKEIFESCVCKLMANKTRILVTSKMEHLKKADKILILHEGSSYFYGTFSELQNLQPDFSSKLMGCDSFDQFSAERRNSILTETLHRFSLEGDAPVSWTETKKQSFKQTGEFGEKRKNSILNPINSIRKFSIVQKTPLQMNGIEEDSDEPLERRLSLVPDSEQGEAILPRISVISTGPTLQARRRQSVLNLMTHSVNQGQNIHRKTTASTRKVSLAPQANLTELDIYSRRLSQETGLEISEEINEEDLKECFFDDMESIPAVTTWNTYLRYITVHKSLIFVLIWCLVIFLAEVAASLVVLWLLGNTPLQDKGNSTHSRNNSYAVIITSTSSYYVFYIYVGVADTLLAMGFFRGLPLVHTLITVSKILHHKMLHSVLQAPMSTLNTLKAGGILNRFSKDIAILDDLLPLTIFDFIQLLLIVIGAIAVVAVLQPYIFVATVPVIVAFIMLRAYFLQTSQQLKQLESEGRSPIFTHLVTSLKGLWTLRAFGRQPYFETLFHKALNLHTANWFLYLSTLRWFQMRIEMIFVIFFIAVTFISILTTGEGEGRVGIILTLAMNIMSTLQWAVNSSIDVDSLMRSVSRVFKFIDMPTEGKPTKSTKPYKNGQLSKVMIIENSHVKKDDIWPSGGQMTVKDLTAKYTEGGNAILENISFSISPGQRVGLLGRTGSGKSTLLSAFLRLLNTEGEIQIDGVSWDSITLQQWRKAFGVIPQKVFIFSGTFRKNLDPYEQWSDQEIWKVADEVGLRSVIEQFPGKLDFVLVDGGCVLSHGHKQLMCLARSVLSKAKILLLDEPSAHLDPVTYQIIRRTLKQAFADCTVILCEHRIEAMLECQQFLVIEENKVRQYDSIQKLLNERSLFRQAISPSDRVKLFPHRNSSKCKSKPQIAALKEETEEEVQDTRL

pEC50 | Emax | SMILES
6.96 | 351% | COc1nccc2c1C(=O)N[C@H](C(=O)NCCc1cc(C3CC3)on1)CC(=O)N(C)[C@@H](CC(C)C)C(=O)N(C)[C@H](CC1CCC(F)(F)CC1)C(=O)N[C@H](Cc1ccccc1)CO2 [Example 682, (3R,6R,9S,13S)-3-benzyl-N-(2-(5-cyclopropylisoxazol-3-yl)ethyl)-6-((4,4-difluorocyclohexyl)methyl)-9-isobutyl-16-methoxy-7,10-dimethyl-5,8,11,15-tetraoxo-2,3,4,5,6,7,8,9,10,11,12,13,14,15-tetradecahydropyrido[3,4-p][1]oxa[4,7,10,14]tetraazacycloheptadecine-13-carboxamide]
6.44 | 262% | COc1nc(C)cc2c1C(=O)N[C@H](C(=O)NCCc1cc(C)no1)CC(=O)N(C)[C@@H](CC(C)C)C(=O)N1CCC3(CC3)C[C@@H]1C(=O)N[C@H](Cc1ccccc1)CO2 [Example 683, (7′S,11′S,17a′R,20′R)-20′-benzyl-11′-isobutyl-4′-methoxy-2′,10′-dimethyl-N-(2-(3-methylisoxazol-5-yl)ethyl)-5′,9′,12′,18′-tetraoxo-5′,6′,7′,8′,9′,10′,11′,12′,14′,15′,17′,17a′,18′,19′,20′,21′-hexadecahydrospiro[cyclopropane-1,16′-dipyrido[2,1-f:3′,4′-p][1]oxa[4,7,10,14]tetraazacycloheptadecine]-7′-carboxamide]
6.01 | 235% | COc1cc(CCNC(=O)[C@@H]2CC(=O)N(C)[C@@H](CC(C)C)C(=O)N3CCC4(CC4)C[C@H]3C(=O)N[C@H](Cc3ccccc3)COc3cc(C)nc(OC)c3C(=O)N2)on1 [Example 684, (7′S,11′S,17a′S,20′R)-20′-benzyl-11′-isobutyl-4′-methoxy-N-(2-(3-methoxyisoxazol-5-yl)ethyl)-2′,10′-dimethyl-5′,9′,12′,18′-tetraoxo-5′,6′,7′,8′,9′,10′,11′,12′,14′,15′,17′,17a′,18′,19′,20′,21′-hexadecahydrospiro[cyclopropane-1,16′-dipyrido[2,1-f:3′,4′-p][1]oxa[4,7,10,14]tetraazacycloheptadecine]-7′-carboxamide]
6.30 | 234% | [2H]C([2H])([2H])Oc1nc(C)cc2c1C(=O)N[C@H](C(=O)NCCc1cnn(C3CC3)n1)CC(=O)N(C)[C@@H](CC(C)C)C(=O)N1CCCC[C@@H]1C(=O)N[C@H](Cc1ccccc1)CO2 [Example 685, (7S,11S,17aR,20R)-20-benzyl-N-(2-(2-cyclopropyl-2H-1,2,3-triazol-4-yl)ethyl)-11-isobutyl-4-(methoxy-d3)-]
6.98 | 301% | CC(C)C[C@H]1C(=O)N(C)C2(CCC2)C(=O)N[C@H](Cc2ccccc2)COc2cnc3ccc(F)cc3c2C(=O)N[C@H](C(=O)NCCc2nc(C3CC3)no2)CC(=O)N1C [Example 692, (3′S,7′S,13′R)-13′-benzyl-N-(2-(3-cyclopropyl-1,2,4-oxadiazol-5-yl)ethyl)-20′-fluoro-7′-isobutyl-6′,9′-dimethyl-1′,5′,8′,11′-tetraoxo-2′,3′,4′,5′,6′,7′,8′,9′,11′,12′,13′,14′-dodecahydro-1′H-spiro[cyclobutane-1,10′-[1]oxa[4,7,10,14]tetraazacycloheptadecino[17,16-c]quinoline]-3′-carboxamide]

The remaining lines, values behind:

SMILES | pEC50 | Emax
COc1nccc2c1C(=O)N[C@H](C(=O)NCCc1noc(C3CC3)n1)CC(=O)N(C)[C@@H](CC(C)C)C(=O)N(C)[C@H](c1ccccc1)C(=O)N[C@H](Cc1ccccc1)CO2 [Example 681, (3R,6R,9S,13S)-3-benzyl-N-(2-(5-cyclopropyl-1,2,4-oxadiazol-3-yl)ethyl)-9-isobutyl-16-methoxy-7,10-dimethyl-5,8,11,15-tetraoxo-6-phenyl-2,3,4,5,6,7,8,9,10,11,12,13,14,15-tetradecahydropyrido[3,4-p][1]oxa[4,7,10,14]tetraazacycloheptadecine-13-carboxamide] | 6.35 | 313%
COc1cc(CCNC(=O)[C@@H]2CC(=O)N(C)[C@@H](CC(C)C)C(=O)N(C)C3(CC3)C(=O)N[C@H](Cc3ccccc3)COc3cnc4ccccc4c3C(=O)N2)on1 [Example 686, (3′S,7′S,13′R)-13′-benzyl-7′-isobutyl-N-(2-(3-methoxyisoxazol-5-yl)ethyl)-6′,9′-dimethyl-1′,5′,8′,11′-tetraoxo-2′,3′,4′,5′,6′,7′,8′,9′,11′,12′,13′,14′-dodecahydro-1′H-spiro[cyclopropane-1,10′-[1]oxa[4,7,10,14]tetraazacycloheptadecino[17,16-c]quinoline]-3′-carboxamide] | 6.36 | 332%
CC(C)C[C@H]1C(=O)N(C)CC(=O)N[C@H](Cc2ccccc2)COc2ccccc2C(=O)N[C@H](C(=O)NCCc2ccc3c(c2)OCO3)CC(=O)N1C [Example 687, (3R,9S,13S)-N-(2-(benzo[d][1,3]dioxol-5-yl)ethyl)-3-benzyl-9-isobutyl-7,10-dimethyl-5,8,11,15-tetraoxo-2,3,4,5,6,7,8,9,10,11,12,13,14,15-tetradecahydrobenzo[p][1]oxa[4,7,10,14]tetraazacycloheptadecine-13-carboxamide] | 6.10 | 107%
CC(C)C[C@H]1C(=O)N(C)CC(=O)N[C@H](Cc2ccccc2)COc2ccccc2C(=O)N[C@H](C(=O)NCCc2ccc3c(c2)OCCO3)CC(=O)N1C [Example 688, (3R,9S,13S)-3-benzyl-N-(2-(2,3-dihydrobenzo[b][1,4]dioxin-6-yl)ethyl)-9-isobutyl-7,10-dimethyl-5,8,11,15-tetraoxo-2,3,4,5,6,7,8,9,10,11,12,13,14,15-tetradecahydrobenzo[p][1]oxa[4,7,10,14]tetraazacycloheptadecine-13-carboxamide] | 6.34 | 104%
CC(C)C[C@H]1C(=O)N(C)C2(CCC2)C(=O)N[C@H](Cc2ccccc2)COc2cnc3ccc(F)cc3c2C(=O)N[C@H](C(=O)NCCc2cc(C3CC3)no2)CC(=O)N1C [Example 689, (3'S,7'S,13′R)-13′-Benzyl-N-(2-(3-cyclopropylisoxazol-5-yl)ethyl)-20′-fluoro-7′-isobutyl-6′,9′-dimethyl-1′,5′,8′,11′-tetraoxo-2′,3′,4′,5′,6′,7′,8′,9′,11′,12′,13′,14′-dodecahydro-1′H-spiro[cyclobutane-1,10′-[1]oxa[4,7,10,14]tetraazacycloheptadecino[17,16-c]quinoline]-3′-carboxamide] | 6.61 | 390%
Cc1cc(CCNC(=O)[C@@H]2CC(=O)N(C)[C@@H](CC(C)C)C(=O)N(C)C3(CCC3)C(=O)N[C@H](Cc3ccccc3)COc3cnc4ccc(F)cc4c3C(=O)N2)on1 [Example 690, (3′S,7′S,13′R)-13′-benzyl-20′-fluoro-7′-isobutyl-6′,9′-dimethyl-N-(2-(3-methylisoxazol-5-yl)ethyl)-1′,5′,8′,11′-tetraoxo-2′,3′,4′,5′,6′,7′,8′,9′,11′,12′,13′,14′-dodecahydro-1′H-spiro[cyclobutane-1,10′-[1]oxa[4,7,10,14]tetraazacycloheptadecino[17,16-c]quinoline]-3′-carboxamide] | 6.32 | 401%
CC(C)C[C@H]1C(=O)N(C)C2(CCC2)C(=O)N[C@H](Cc2ccccc2)COc2cnc3ccc(F)cc3c2C(=O)N[C@H](C(=O)NCCc2noc(C3CC3)n2)CC(=O)N1C [Example 691, (3′S,7′S,13′R)-13′-benzyl-N-(2-(5-cyclopropyl-1,2,4-oxadiazol-3-yl)ethyl)-20′-fluoro-7′-isobutyl-6′,9′-dimethyl-1′,5′,8′,11′-tetraoxo-2′,3′,4′,5′,6′,7′,8′,9′,11′,12′,13′,14′-dodecahydro-1′H-spiro[cyclobutane-1,10′-[1]oxa[4,7,10,14]tetraazacycloheptadecino[17,16-c]quinoline]-3′-carboxamide] | 6.70 | 364%
CC(C)C[C@H]1C(=O)N(C)[C@H](CC2CCCC2)C(=O)N[C@H](Cc2ccccc2)COc2cnc3ccc(F)cc3c2C(=O)N[C@H](C(=O)NCCc2noc(C3CC3)n2)CC(=O)N1C [Example 693, (3S,7S,10R,13R)-13-benzyl-10-(cyclopentylmethyl)-N-(2-(5-cyclopropyl-1,2,4-oxadiazol-3-yl)ethyl)-20-fluoro-7-isobutyl-6,9-dimethyl-1,5,8,11-tetraoxo-1,2,3,4,5,6,7,8,9,10,11,12,13,14-tetradecahydro-[1]oxa[4,7,10,14]tetraazacycloheptadecino[17,16-c]quinoline-3-carboxamide] | 7.40 | 401%
CC(C)C[C@H]1C(=O)N(C)[C@@H](CC2CCCC2)C(=O)N[C@H](Cc2ccccc2)COc2cnc3ccc(F)cc3c2C(=O)N[C@H](C(=O)NCCc2noc(C3CC3)n2)CC(=O)N1C [Example 694, (3S,7S,10S,13R)-13-benzyl-10-(cyclopentylmethyl)-N-(2-(5-cyclopropyl-1,2,4-oxadiazol-3-yl)ethyl)-20-fluoro-7-isobutyl-6,9-dimethyl-1,5,8,11-tetraoxo-1,2,3,4,5,6,7,8,9,10,11,12,13,14-tetradecahydro-[1]oxa[4,7,10,14]tetraazacycloheptadecino[17,16-c]quinoline-3-carboxamide] | 6.62 | 213%
Cc1cc(CCNC(=O)[C@@H]2CC(=O)N(C)[C@@H](CC(C)C)C(=O)N(C)[C@@H](Cc3cccc4ccccc34)C(=O)N[C@H](Cc3ccccc3)COc3cnc4ccccc4c3C(=O)N2)on1 [Example 695, (3S,7S,10S,13R)-13-benzyl-7-isobutyl-6,9-dimethyl-N-(2-(3-methylisoxazol-5-yl)ethyl)-10-(naphthalen-1-ylmethyl)-1,5,8,11-tetraoxo-1,2,3,4,5,6,7,8,9,10,11,12,13,14-tetradecahydro-[1]oxa[4,7,10,14]tetraazacycloheptadecino[17,16-c]quinoline-3-carboxamide] | 6.70 | 237%
